Assays:
[1] = system: pseudocomedone (utriculus) of the rhino mouse; test: Topical rhino mouse pseudocomedone (utriculus) reduction assay; type: in vivo; set-up: Utriculus reduction (Table 1) / Utriculus reduction (Table 3): key to the marks not given beside the values; conditions: for Utriculus reduction (Table 1): 0.1% concentration, once daily 5 days/week for two weeks; for Utriculus reduction (Table 3): concentration 0.1 (unit not given); for Utriculus Reduction (Table 7): two weeks
Experimental: A topical assay to test for pseudocomedone (utriculus) reduction in the rhino mouse is conducted.
Each test compound and a vehicle control is applied topically to the dorsal trunk of the rhino mouse. The utriculus diameters are measured with a ocular micrometer. […] Kligman, et al., The Effect on Rhino Mouse Skin of Agents which Influence Keratinization and Exfoliation, J. Invest. Derm. […] Van Scott, Experimental Animal Integumental Models for Screening Potential Dermatologic Drugs, In Pharmacology of the Skin, eds. […] Mann, Hair Loss and Cyst Formation in Hairless and Rhino Mutant Mice, Anat. Rec. […] Mezick, et al., Topical and Systemic Effects of Retinoids on Horn-Filled Utriculus Size in the Rhino Mouse. A Model to Quantify Antikeratinizing Effects of Retinoids, J. Invest. Derm. […] Mezick, et al., Anti-Acne Activity of Retinoids in the Rhino Mouse, In Models in Dermatology, eds.
(§1) The dorsal trunk of the rhino mouse is the test site. Each test compound is dissolved in alcohol:propylene glycol (70:30, v:v) or other suitable vehicle and topically applied (0.1 ml) to the dorsal trunk once daily, five consecutive days/week for two weeks. Also, administration may be oral (p.o.) in a suitable vehicle. Following treatment, the animals are sacrificed by cervical dislocation. The treated dorsal trunk skin is removed from the animal and placed into 0.5% acetic acid for up to 18 hours at approximately 4° C. After this, the epidermis with the acne cysts is separated from the underlying dermis. The sheets of epidermis are processed by routine methods to permanent whole mounts for microscopic examination. Also, full-thickness samples may be taken, stained (H&E), and examined by light microscopy.
The utriculus diameters are measured with an ocular micrometer to compare effects of test compounds to vehicle control and/or reference compound on cyst reduction. Light microscopy is used to determine effects on cell differentiation.
Another topical assay is conducted following the procedure described above.
Each test compound and a vehicle control was applied topically to the dorsal trunk of the rhino mouse. The utriculus diameters are measured with a ocular micrometer. […] Kligman, et al., J. Invest. […] Van Scott, Pharmacology of the Skin, eds. […] Mann, Anat. […] Mezick, et al, J. Invest. […] Mezick et al., Models in Dermatology, eds.
as §1, with “(70:30,v:v)” for “(70:30, v:v)”, “weeks.” for “weeks. Also, administration may be oral (p.o.) in a suitable vehicle.”, “"acne cysts"” for “acne cysts”, “are” for “may be”, “(H&E)” for “(H&E),”, “microscope.” for “microscopy.”

[2] = system: skin (inner forearm, cheek); test: Topical assay for comparative dermal irritation in human subjects; type: in vivo, human (patients); conditions: for Irritant reactions, inner forearm: first test, 0.025% solution; for Irritant reactions, inner forearm / Irritant reaction, inner forearm: twice daily for ten days; for Irritant reaction, inner forearm: second test, one subject of four reacted; for Irritant reaction, inner forearm / Irritation of the cheeks: 0.075% solution; for Irritation of the cheeks: third test, twice daily, six days
Experimental: 2-(9-cis-retinoyloxy)-4-methoxyacetophenone is evaluated in a study of its potential to produce dermal irritation. Comparisons are made of tretinoin, isotretinoin, 2-(9-cis-retinoyloxy)-4-methoxyacetophenone, and the vehicle solution.
In the first test, four solutions are used. The control consists of vehicle solution, namely a solution of 60% by volume ethanol and 40% by volume polyethylene glycol. The other three solutions are 0.025% solutions of tretinoin, isotretinoin, or 2-(9-cis-retinoyloxy)-4-methoxyacetophenone in 60% by volume ethanol and 40% by volume polyethylene glycol. Four patients paint two saturated cotton swabs of each of the four solutions on four different areas of the inner forearm, twice daily for ten days.
In the second test, four other solutions are used. The control consists of vehicle solution, namely a solution of 90% by volume ethanol and 10% by volume polyethylene glycol. The other three solutions are 0.075% solutions of tretinoin, isotretinoin, or 2-(9-cis-retinoyloxy)-4-methoxyacetophenonein 90% by volume ethanol and 10% by volume polyethylene glycol. Four patients paint two saturated cotton swabs of each of the four solutions on four different areas of the inner forearm, twice daily for ten days. Only one subject experiences an irritant reaction. […] By day nine, both areas are still reacting, the tretinoin area more intensely than the isotretinoin area. There is no reaction in either the 2-(9-cis-retinoyloxy)-4-methoxyacetophenone or the control areas.
In the third test, three solutions are used. The three solutions are 0.075% solutions of tretinoin, isotretinoin, or 2-(9-cis-retinoyloxy)-4-methoxyacetophenone in 90% by volume ethanol and 10% by volume polyethylene glycol. Four patients paint two saturated cotton swabs of the 2-(9-cis-retinoyloxy)-4-methoxyacetophenone solution twice daily on one cheek of their faces. To the other cheek they apply two saturated cotton swabs of either tretinoin or isotretinoin.
The tests are carried out in double-blind fashion, that is, neither the subjects nor the investigator know the contents of the solutions during the study.
Clinical assessments are made daily of the subjects cheeks. All subjects develop irritant reactions by the third or fourth day of the study.

SMILES	Utriculus reduction (Table 1) [1]	Utriculus reduction (Table 3) [1]	Irritant reactions, inner forearm [2]	Irritant reaction, inner forearm [2]	Irritation of the cheeks [2]	Utriculus Reduction (Table 7) ([1]; dose 0.0005%)	Utriculus Reduction (Table 7) ([1]; dose 0.005%)	Utriculus Reduction (Table 7) ([1]; dose 0.05%)
COc1ccc(C(=O)COC(=O)/C=C(C)/C=C/C=C(C)\C=C\C2=C(C)CCCC2(C)C)cc1 [Compound 2, 2-(9-cis-retinoyloxy)-4'-methoxyacetophenone]	+++	+++	No irritant reactions occur	no reaction	slightly irritated or not irritated at all	–	–	–
CC1=C(/C=C/C(C)=C/C=C/C(C)=C/C(=O)O)C(C)(C)CCC1 [all-trans-retinoic acid, reference compound]	++	++	No irritant reactions occur	On day two, the tretinoin area begins reacting with redness and peeling	reactions which are so intense with redness and peeling that all subjects discontinue application on or before the sixth day	34.1	49.9	72.8
